Measured values published in ChEMBL document CHEMBL4507291 (2021).

Legend:
[1] = biological target: T1, Protein kinase C iota type (Homo sapiens) (UniProt P41743); assay: PRKCI (PKC iota) Kinase screen; settings: Compound concentration 1.0 uM
T1 sequence (whole entry): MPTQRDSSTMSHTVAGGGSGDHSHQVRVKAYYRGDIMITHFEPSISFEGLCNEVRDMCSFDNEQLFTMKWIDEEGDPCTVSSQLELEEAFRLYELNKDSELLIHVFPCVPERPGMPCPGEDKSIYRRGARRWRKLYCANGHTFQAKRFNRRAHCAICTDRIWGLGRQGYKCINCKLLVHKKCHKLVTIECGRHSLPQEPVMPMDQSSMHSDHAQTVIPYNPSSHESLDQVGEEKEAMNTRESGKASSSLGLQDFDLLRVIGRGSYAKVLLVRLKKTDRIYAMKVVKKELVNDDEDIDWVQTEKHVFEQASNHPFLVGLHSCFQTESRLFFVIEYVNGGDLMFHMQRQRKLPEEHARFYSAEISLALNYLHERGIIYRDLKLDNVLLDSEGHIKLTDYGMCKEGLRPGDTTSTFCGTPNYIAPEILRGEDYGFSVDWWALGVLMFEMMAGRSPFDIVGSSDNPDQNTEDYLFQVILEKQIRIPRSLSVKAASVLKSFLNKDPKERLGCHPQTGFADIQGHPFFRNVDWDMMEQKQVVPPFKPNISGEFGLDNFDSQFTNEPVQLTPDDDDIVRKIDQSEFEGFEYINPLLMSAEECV

[2] = biological target: T2, Serine/threonine-protein kinase Sgk2 (Homo sapiens) (UniProt Q9HBY8); assay: SGK2 Kinase screen; settings: Compound concentration 1.0 uM
T2 sequence (whole entry): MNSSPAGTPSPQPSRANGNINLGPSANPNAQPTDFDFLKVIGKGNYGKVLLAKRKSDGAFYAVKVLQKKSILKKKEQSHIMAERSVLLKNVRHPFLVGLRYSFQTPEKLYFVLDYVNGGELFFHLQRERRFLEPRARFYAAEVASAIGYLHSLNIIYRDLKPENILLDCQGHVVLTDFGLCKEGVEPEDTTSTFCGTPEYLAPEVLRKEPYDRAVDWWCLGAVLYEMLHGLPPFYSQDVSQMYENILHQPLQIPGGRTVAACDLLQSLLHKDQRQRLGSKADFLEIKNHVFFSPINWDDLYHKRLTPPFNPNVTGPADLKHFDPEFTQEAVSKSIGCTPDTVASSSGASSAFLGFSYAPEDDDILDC

[3] = biological target: Mitogen-activated protein kinase kinase kinase 8 (Homo sapiens) (UniProt P41279); assay: MAP3K8 (COT) Kinase screen; settings: Compound concentration 1.0 uM
[4] = biological target: T3, Activin receptor type-1B (Homo sapiens) (UniProt P36896); assay: ACVR1B (ALK4) Kinase screen; settings: Compound concentration 1.0 uM
T3 sequence (whole entry): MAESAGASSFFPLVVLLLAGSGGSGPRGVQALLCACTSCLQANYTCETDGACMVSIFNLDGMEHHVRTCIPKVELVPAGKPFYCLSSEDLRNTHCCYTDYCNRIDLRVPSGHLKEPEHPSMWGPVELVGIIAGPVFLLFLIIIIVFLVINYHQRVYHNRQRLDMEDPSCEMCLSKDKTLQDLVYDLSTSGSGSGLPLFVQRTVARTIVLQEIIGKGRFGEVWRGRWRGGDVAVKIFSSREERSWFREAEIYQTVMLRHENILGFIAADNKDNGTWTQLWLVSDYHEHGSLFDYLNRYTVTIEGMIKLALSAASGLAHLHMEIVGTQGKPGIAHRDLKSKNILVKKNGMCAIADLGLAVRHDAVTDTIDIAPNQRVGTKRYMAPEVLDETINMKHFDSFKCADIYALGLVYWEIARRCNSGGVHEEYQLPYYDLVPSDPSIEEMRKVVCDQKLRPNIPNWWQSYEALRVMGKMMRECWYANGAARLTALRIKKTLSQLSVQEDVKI

[5] = system: Tyrosine-protein kinase JAK2 (Homo sapiens), O60674 [V617F]; assay: JAK2 JH1 JH2 V617F Kinase screen; settings: Compound concentration 1.0 uM
[6] = biological target: Casein kinase I isoform alpha (Homo sapiens) (UniProt P48729); assay: CSNK1A1 (CK1 alpha 1) Kinase screen; settings: Compound concentration 1.0 uM
[7] = biological target: T4, Ephrin type-A receptor 1 (Homo sapiens) (UniProt P21709); assay: EPHA1 Kinase screen; settings: Compound concentration 1.0 uM
T4 sequence (whole entry): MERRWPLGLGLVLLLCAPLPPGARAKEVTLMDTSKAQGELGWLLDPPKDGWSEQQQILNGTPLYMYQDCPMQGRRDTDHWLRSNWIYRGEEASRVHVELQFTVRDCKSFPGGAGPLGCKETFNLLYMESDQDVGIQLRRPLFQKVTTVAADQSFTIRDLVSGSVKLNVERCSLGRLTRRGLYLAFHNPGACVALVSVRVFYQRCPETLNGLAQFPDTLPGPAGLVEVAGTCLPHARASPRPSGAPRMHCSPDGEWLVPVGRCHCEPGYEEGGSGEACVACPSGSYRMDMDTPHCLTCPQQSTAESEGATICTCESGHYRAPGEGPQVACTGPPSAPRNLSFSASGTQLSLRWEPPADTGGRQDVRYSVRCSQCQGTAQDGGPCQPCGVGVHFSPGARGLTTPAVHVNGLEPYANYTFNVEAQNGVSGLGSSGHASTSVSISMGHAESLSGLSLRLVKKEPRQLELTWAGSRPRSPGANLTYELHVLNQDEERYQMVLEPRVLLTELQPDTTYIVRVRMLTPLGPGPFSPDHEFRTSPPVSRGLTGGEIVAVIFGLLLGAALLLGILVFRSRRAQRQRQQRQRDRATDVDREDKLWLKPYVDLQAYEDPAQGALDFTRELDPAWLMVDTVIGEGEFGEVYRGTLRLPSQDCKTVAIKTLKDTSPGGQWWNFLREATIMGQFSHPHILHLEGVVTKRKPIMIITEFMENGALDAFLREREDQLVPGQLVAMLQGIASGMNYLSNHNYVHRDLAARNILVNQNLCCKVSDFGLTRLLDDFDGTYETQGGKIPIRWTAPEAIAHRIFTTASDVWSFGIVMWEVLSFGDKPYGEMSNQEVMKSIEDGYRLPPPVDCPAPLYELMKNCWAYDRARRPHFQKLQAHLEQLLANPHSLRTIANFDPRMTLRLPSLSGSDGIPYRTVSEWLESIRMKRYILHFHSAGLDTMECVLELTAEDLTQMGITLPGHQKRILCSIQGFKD

[8] = biological target: Insulin receptor (Homo sapiens) (UniProt P06213); assay: Protein Tyrosine Kinase, Insulin Receptor Eurofins-Panlabs enzyme assay; set-up: substrate with concentration; settings: Compound concentration 10.0 uM

Measured: inhibition

Insulin receptor (Homo sapiens), sequence (P06213 28-758 limits assumed): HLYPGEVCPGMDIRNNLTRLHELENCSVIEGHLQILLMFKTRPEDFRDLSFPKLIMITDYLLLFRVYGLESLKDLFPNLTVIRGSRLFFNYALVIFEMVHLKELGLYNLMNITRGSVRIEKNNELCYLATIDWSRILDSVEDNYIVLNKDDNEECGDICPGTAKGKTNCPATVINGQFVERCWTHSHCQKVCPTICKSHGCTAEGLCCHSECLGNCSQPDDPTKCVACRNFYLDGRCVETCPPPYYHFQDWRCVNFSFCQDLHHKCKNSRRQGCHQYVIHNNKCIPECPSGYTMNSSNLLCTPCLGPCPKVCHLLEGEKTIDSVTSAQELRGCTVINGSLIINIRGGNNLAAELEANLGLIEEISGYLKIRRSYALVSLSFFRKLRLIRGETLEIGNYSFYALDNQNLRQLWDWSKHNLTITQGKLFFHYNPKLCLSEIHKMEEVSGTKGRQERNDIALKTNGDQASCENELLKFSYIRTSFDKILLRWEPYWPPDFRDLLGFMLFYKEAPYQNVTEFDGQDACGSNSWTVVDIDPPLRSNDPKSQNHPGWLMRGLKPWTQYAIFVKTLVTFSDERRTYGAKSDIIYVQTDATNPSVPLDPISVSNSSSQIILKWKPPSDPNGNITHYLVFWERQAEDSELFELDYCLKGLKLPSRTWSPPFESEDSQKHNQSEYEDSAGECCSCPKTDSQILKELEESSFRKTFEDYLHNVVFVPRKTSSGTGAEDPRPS
Insulin receptor (Homo sapiens), sequence (P06213 763-1382 limits assumed): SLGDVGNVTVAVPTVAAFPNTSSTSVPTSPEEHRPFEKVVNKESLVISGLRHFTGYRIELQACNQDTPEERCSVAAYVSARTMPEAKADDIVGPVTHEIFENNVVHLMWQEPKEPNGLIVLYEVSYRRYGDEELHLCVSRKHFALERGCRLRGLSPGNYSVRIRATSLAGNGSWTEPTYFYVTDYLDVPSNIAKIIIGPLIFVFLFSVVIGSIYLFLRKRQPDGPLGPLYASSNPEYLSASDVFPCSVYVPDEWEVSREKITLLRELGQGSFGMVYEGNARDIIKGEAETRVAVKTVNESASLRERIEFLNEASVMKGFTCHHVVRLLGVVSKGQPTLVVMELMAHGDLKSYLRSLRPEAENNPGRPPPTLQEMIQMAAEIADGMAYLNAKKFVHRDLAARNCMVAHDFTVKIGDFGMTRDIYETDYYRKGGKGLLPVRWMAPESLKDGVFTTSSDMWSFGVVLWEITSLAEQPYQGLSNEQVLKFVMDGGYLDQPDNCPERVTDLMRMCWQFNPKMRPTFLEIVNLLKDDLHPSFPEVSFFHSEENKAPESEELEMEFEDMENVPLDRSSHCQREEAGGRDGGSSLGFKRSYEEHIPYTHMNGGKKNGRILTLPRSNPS
Casein kinase I isoform alpha (Homo sapiens), sequence (P48729 2-337 limits assumed): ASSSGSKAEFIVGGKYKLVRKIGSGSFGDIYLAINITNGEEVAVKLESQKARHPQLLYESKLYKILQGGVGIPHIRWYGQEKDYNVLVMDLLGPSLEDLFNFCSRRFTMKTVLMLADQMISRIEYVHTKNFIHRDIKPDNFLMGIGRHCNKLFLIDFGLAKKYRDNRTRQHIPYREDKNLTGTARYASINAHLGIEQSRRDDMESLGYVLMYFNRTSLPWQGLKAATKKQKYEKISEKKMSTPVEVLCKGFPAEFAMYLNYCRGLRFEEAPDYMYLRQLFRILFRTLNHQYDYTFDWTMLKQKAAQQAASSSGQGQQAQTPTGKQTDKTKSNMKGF
Tyrosine-protein kinase JAK2 (Homo sapiens), O60674 [V617F], sequence (O60674 whole entry V617F, canonical isoform): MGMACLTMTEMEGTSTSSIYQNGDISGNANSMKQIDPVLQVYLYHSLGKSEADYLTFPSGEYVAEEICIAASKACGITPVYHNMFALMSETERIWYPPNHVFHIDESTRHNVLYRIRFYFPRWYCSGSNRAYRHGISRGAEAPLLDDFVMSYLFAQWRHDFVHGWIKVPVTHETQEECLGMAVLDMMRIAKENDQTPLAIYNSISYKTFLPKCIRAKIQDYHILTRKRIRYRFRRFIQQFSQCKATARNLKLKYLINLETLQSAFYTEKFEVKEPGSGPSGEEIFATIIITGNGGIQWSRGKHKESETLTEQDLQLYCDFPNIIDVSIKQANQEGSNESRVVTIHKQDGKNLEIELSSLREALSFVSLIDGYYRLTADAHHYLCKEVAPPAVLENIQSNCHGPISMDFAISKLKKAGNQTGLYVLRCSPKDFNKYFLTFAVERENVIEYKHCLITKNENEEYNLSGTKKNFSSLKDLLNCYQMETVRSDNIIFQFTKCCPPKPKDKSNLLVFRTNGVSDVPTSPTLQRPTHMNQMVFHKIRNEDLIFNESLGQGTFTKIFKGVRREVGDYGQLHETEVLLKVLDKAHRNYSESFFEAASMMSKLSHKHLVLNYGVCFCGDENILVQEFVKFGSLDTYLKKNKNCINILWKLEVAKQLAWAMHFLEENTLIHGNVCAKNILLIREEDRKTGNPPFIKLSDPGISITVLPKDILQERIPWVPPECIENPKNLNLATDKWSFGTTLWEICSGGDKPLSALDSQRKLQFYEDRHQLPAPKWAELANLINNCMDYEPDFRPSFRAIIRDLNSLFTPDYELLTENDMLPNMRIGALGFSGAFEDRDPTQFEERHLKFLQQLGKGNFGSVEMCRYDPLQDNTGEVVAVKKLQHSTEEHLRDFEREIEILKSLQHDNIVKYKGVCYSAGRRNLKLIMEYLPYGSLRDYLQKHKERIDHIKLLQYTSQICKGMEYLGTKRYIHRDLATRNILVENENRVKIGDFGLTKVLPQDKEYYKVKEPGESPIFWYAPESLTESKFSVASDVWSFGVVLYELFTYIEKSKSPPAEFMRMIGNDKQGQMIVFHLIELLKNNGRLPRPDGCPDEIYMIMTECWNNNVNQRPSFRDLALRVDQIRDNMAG
Mitogen-activated protein kinase kinase kinase 8 (Homo sapiens), sequence (P41279 whole entry): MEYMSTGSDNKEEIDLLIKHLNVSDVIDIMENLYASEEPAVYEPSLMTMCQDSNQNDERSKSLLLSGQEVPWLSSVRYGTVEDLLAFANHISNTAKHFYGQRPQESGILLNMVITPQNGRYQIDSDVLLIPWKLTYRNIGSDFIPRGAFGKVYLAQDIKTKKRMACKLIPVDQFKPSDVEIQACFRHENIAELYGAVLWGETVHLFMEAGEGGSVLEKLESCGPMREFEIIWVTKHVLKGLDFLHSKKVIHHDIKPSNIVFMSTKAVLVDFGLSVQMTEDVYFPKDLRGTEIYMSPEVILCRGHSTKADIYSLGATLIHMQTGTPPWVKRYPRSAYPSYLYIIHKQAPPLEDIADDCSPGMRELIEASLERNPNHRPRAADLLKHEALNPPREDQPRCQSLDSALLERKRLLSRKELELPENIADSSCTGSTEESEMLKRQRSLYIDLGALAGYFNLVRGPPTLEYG

C[C@@H]1CN(c2cc(-c3n[nH]c4ccc(OC5(C)CC5)cc34)ncn2)C[C@H](C)O1 [MLi-2]
inactive: [1] -0.512% | [2] 1.36% | [3] 16.3% | [4] -0.724% | [5] -7.77% | [6] 1.89% | [7] 7.77% | [8] 9%
